{"source": "paper PMC2245808", "about": "“Persistence of duplicated PAC1 receptors in the teleost, Sparus auratus” (BMC Evolutionary Biology, 2007)", "key": {"PAC1": {"system": "PAC1", "settings": "human PAC1; ref [18],[19]; cited from earlier work", "excerpt": "In vertebrates, activation of PAC1/VPAC receptors occurs via three intracellular transduction mechanisms. These involve either cyclic AMP (cAMP) production, IP turnover via PLC or/and calcium mobilization as a consequence of the activation of a G-protein complex. In mammals, five PAC1 isoforms, which result from the insertion of one or two, 28 (hip or hop1 variant) or ..."}, "[1]": {"system": "endogenous receptors in Hek293", "assay": "Negative control: Hek293 cells transfected with pcDNA3 without insert", "type": "cell-based", "settings": "maximum concentration of test peptide (10^-6 M)", "excerpt": "The sbPAC1A and sbPAC1B were successfully expressed in Cos7 and Hek293 cell lines as confirmed by immunofluorescence and Western blot analysis. Cos7 cell extracts subject to Western blot contained a specific immunoreactive fusion protein of approximately 52 kDa in transfected cells, which corresponds to the estimated molecular weight in silico of the fusion proteins, (T7PAC1A is 52.75 kDa and T7PAC1B is 52.32 kDa). […] For this reason only the results obtained with transfected Cos7 cells are presented.\nLigand binding studies were performed two days after transfections, in three independent experiments. […]\n(§1) The quantification of cAMP produced was determined by radioimmunoassay using the TRK432 kit (GE Healthcare, UK) following the manufacturer's instructions. […] The concentration of cAMP produced (pmol/well) was determined in duplicate for each sample and calculations performed based on a linear regression curve constructed using standard concentrations of labelled (^3H) cAMP. […] Data was analyzed by comparing the potency profile of each sbPAC1 receptor in the presence of different concentrations of test peptides and by comparing the potency profile of both receptors in the presence of identical peptide concentrations. […]"}, "pituitary cells": {"system": "pituitary cells", "settings": "compared to GHRH and GnRH for PACAP38; ref [46],[51],[52]; cited from earlier work", "excerpt": "(§2) An intriguing aspect about the sbPAC1 genes is their divergent tissue distribution and this may be the basis of their specific physiological functions and persistence in the genome. Understanding the biological function of receptors is complex as it is not only the availability and concentration of receptors but also of ligands and accessory factors at a given site which will determine receptor preference/activity and ultimately biological function."}, "sbPAC1A": {"system": "sbPAC1A", "assay": "cAMP production in Cos7 cells expressing sbPAC1A (RIA)", "type": "cell-based, sea bream (Sparus auratus)", "settings": "for LOGEC50 for cAMP production: 10^-6 to 10^-11M peptide, cAMP by radioimmunoassay (TRK432), mean ± SEM of three independent experiments in duplicate, log value with negative sign", "protocol": "(§3) Specific primers for each sbPAC1 gene were designed to amplify the mature receptor sequence (Table 2) and were cloned into pcDNA3 vector (Invitrogen, UK) containing a signal peptide of CD33 and a T7-epitope tag (CD33-T7-pcDNA3, [66]). In order to facilitate cloning, restriction digestion sites for BglII and EcoRI enzymes were incorporated in the forward and reverse primers respectively. Template amplification was carried out using the thermocyle; 95°C for 2 minutes; 35 cycles of (95°C for 1 minute, 68°C for 1 minute and 70°C 2 minutes); 72°C for 10 minutes with a proof-reading Pfu DNA polymerase (Promega, Spain) in a 25 μl reaction volume containing 1 × PCR buffer (Promega, Spain), 1,5 mM MgCl2 (Promega, Spain), 0,2 mM dNTPs (Amersham), […] of each primer and 1,5 U Pfu DNA polymerase (3 U/μl)) and DNase Free water (Sigma-Aldrich, Spain). The amplified PCR products were cloned into pGEMT-easy vector (Promega, Spain), sequenced and subcloned into CD33-T7-pcDNA3 vector in frame with the T7-epitope tag. The recombinant constructs produced (CD33-T7-pcDNA3+sbPAC1A and CD33-T7-pcDNA3+sbPAC1B) were sequenced and used to transfect mammalian Cos7 and Hek293 cells lines. The CD86 (NM_175862) membrane protein of the immunoglobulin superfamily cloned in CD33-T7-pcDNA3 expression vector was used as positive control for cell transfection (de Vet et al., 2001).\n(§4) Mammalian Cos7 and Hek293 cell lines were transfected using the Effectene transfection kit (Qiagen, Germany) and the success of transfection was assessed by western blot and immunofluorescence assays using antisera raised against the T7-epitope tag protein [66]. One day prior to transfection, approximately 60,000 to 70,000 Cos7 and Hek293 cells were seeded and transfections carried out using approximately 0.4 μg of recombinant construct (pcDNA3+sbPAC1A or B) and cells were grown for 2 days at 37°C. The viability of transfected cells was determined by dye exclusion using Trypan blue (0,4% solution, Sigma) and the success of transfection calculated by fluorescent confocal microscopy using DAPI (4',6-Diamidino-2-phenylindole) and FITC (Fluorescein) staining for Cos7 cells and the FACS (Fluorescence Activated Cell Sorting) method for Hek293 cells. The percentage of cell transfection was estimated to be approximately 30% in both cell lines.\nLigand binding studies were performed two days after transfections, in three independent experiments. Transfected cells were incubated in duplicate with different concentrations (10^-6 to 10^-11M) of the human VIP, PACAP38 and secretin (SCT) peptides and ovine PACAP27 peptide for 30 minutes (Sigma-Aldrich, Spain). Homologous sea bream peptides are unavailable but their predicted amino acid sequences are 82%, 100%and 92% identical to human VIP, PACAP27 and PACAP38 respectively and important amino acids at N-terminus potential involved in receptor binding are totally conserved (unpublished data). Prior to ligand-binding assays, Cos7 and Hek293 cells were washed 3 times with DMEM medium without fetal calf serum and incubated in a CO2 incubator with 1 mM of IBMX (3-Isobutyl-1-Methylxantine) for 30 minutes. Ligand-binding assays were performed by incubating the cells in fresh medium containing the peptides in the presence of 1 mM IBMX for 30 minutes at 37°C in the CO2 incubator. After incubation, cells were lysed and stored at -80°C until required. Mammalian Cos7 and Hek293 cells transfected with wild type pcDNA3 were used as negative controls which were incubated with the highest tested peptide concentration ([…]). Prior to assays the responsiveness of transfected Cos7 and Hek293 cells was tested by stimulating cAMP production using Forskolin ([…]; Sigma-Aldrich).\nThe quantification of cAMP produced was determined by radioimmunoassay using the TRK432 kit (GE Healthcare, UK) following the manufacturer's instructions. Cos7 and Hek293 cells were lysed by sonication, centrifuged and the supernatant heat denatured for 10 minutes at 100°C. […]"}, "sbPAC1B": {"system": "sbPAC1B", "assay": "cAMP production in Cos7 cells expressing sbPAC1B (RIA)", "type": "cell-based, sea bream (Sparus auratus)", "settings": "for LOGEC50 for maximal cAMP production: 10^-6 to 10^-11M peptide, cAMP by radioimmunoassay (TRK432), mean ± SEM of three independent experiments in duplicate, log value with negative sign", "protocol": "as §3, §4\n(§5) Ligand binding studies were performed two days after transfections, in three independent experiments. Transfected cells were incubated in duplicate with different concentrations (10^-6 to 10^-11M) of the human VIP, PACAP38 and secretin (SCT) peptides and ovine PACAP27 peptide for 30 minutes (Sigma-Aldrich, Spain). […]\nThe quantification of cAMP produced was determined by radioimmunoassay using the TRK432 kit (GE Healthcare, UK) following the manufacturer's instructions. […]"}, "[2]": {"system": "Hek293 cell lines expressing the recombinant vector", "assay": "Forskolin activation of transfected Hek293 cells (cAMP)", "type": "cell-based", "settings": "Forskolin 10 mM, 1 mM and 0.1 mM", "protocol": "as §5, with “Spain). Homologous sea bream peptides are unavailable but their predicted amino acid sequences are 82%, 100%and 92% identical to human VIP, PACAP27 and PACAP38 respectively and important amino acids at N-terminus potential involved in receptor binding are totally conserved (unpublished data).” for “Spain).”\nas §1"}, "[3]": {"system": "Cos7 cell lines expressing the recombinant vector", "assay": "Forskolin activation of transfected Cos7 cells (cAMP)", "type": "cell-based", "settings": "Forskolin 10 mM, 1 mM and 0.1 mM", "protocol": "as §5, with “Spain). Homologous sea bream peptides are unavailable but their predicted amino acid sequences are 82%, 100%and 92% identical to human VIP, PACAP27 and PACAP38 respectively and important amino acids at N-terminus potential involved in receptor binding are totally conserved (unpublished data).” for “Spain).”\nas §1"}, "intestine": {"system": "intestine", "settings": "tilapia; ref [57]; cited from earlier work", "excerpt": "as §2"}, "[4]": {"system": "gastric and pancreatic secretion", "settings": "cod; ref [55],[56]; cited from earlier work", "excerpt": "as §2"}, "[5]": {"settings": "transfected Cos7 cells, 30 minutes, 37°C, 1 mM IBMX"}}, "data": [{"compound": "Pituitary Adenylate Cyclase-Activating Polypeptide [PACAP]", "values": [{"measurement": "binding preference of PAC1", "setting": "PAC1", "result": "preferentially binds PACAP"}, {"measurement": "responsiveness of Hek293 cells transfected with pcDNA3 without insert", "setting": "[1]", "result": "responsive"}]}, {"compound": "Pituitary Adenylate Cyclase-Activating Polypeptide [PACAP38]", "values": [{"measurement": "effect on fish GH secretion by pituitary cells", "setting": "pituitary cells", "result": "more potent stimulatory effect on fish GH secretion by pituitary cells when compared to GHRH and GnRH"}, {"measurement": "LOGEC50 for cAMP production", "setting": "sbPAC1A; [5]", "result": "-8.54 ± 0.18", "unit": "M"}, {"measurement": "LOGEC50 for maximal cAMP production", "setting": "sbPAC1B; [5]", "result": "-8.92 ± 0.24", "unit": "M"}]}, {"compound": "Pituitary Adenylate Cyclase-Activating Polypeptide [PACAP27]", "values": [{"measurement": "stimulation of sbPAC1A compared to sbPAC1B (LOGEC50 values for maximal cAMP production)", "setting": "sbPAC1A; sbPAC1A vs sbPAC1B, P > 0.05", "result": "equally stimulated"}]}, {"compound": "secretin [SCT]", "values": [{"measurement": "increase above the basal concentration of cAMP production", "setting": "sbPAC1A; human SCT, Cos7 cells transformed with sbPAC1A, 30 minutes, 37°C, 1 mM IBMX, data not shown", "result": "negligible increase"}, {"measurement": "increase above the basal concentration of cAMP production", "setting": "sbPAC1B; human SCT, Cos7 cells transformed with sbPAC1B, 30 minutes, 37°C, 1 mM IBMX, data not shown", "result": "negligible increase"}]}, {"compound": "C=C[C@@]1(C)CC(=O)[C@]2(O)[C@@]3(C)[C@@H](O)CCC(C)(C)[C@@H]3[C@H](O)[C@H](OC(C)=O)[C@@]2(C)O1", "note": "[Forskolin]", "values": [{"measurement": "cAMP production with Forskolin", "setting": "[2]", "result": "maximal cAMP production"}, {"measurement": "cAMP production with Forskolin", "setting": "[3]", "result": "maximal cAMP production"}]}, {"compound": "Vasoactive Intestinal Peptide [VIP]", "values": [{"measurement": "effect on fish GH secretion by pituitary cells", "setting": "pituitary cells", "result": "little or no effect on GH release"}, {"measurement": "effect on ion and water absorption by the intestine", "setting": "intestine", "result": "involved in ion and water absorption by the intestine"}, {"measurement": "effect on gastric and pancreatic secretion", "setting": "[4]", "result": "stimulates gastric and pancreatic secretion"}, {"measurement": "potency for sbPAC1A compared to sbPAC1B", "setting": "sbPAC1A; LOGEC50 comparison of sbPAC1A vs sbPAC1B, P < 0.05", "result": "significantly more potent for sbPAC1A"}, {"measurement": "LOGEC50 for cAMP production", "setting": "sbPAC1A; [5]", "result": "-7.23 ± 0.20", "unit": "M"}, {"measurement": "stimulation of cAMP production compared with PACAP peptides", "setting": "sbPAC1A; two way Anova, Holm-Sidak, transfected Cos7 cells, P < 0.05", "result": "significantly lower (P < 0.05) than for PACAP peptides"}, {"measurement": "LOGEC50 for maximal cAMP production", "setting": "sbPAC1B; [5]", "result": "-6.57 ± 0.14", "unit": "M"}, {"measurement": "stimulation of cAMP compared with PACAP27 and PACAP38", "setting": "sbPAC1B; two way Anova, Holm-Sidak, transfected Cos7 cells, P < 0.001", "result": "significantly lower than PACAP27 and PACAP38 (P < 0.001)"}, {"measurement": "responsiveness of Hek293 cells transfected with pcDNA3 without insert", "setting": "[1]", "result": "responsive"}]}]}
